# Results as given in patent publication US12344600B2, “c-Myc mRNA translation modulators and uses thereof in the treatment of cancer” (Anima Biotech Inc., priority 2022, dated 2025).
# System: c-Myc
# Assay: c-Myc immunofluorescence assay
# Format: cell-based, human
# Conditions: A549 cells, 24 hours, anti-c-Myc immunofluorescence
# Procedure, shortened: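 Read-out is imaged c-Myc immunofluorescence, nucleus-segmented, in A549 lung carcinoma cells exposed to compound dose series for 24 h after 48 h growth. Fixation 4% paraformaldehyde, Triton permeabilization, antibody staining at room temperature; EC50 from logistic fit of signal versus concentration.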
row,Compound,Myc Efficacy (−LogEC50)
1,"COc1ccc(-c2noc(N3CCC(C(=O)NC4CCOCC4)CC3)n2)cc1 [Compound 254, 1-(3-(4-methoxyphenyl)-1,2,4-oxadiazol-5-yl)-N-(tetrahydro-2H-pyran-4-yl)piperidine-4-carboxamide]",+ (+ >3 and <5)
2,"COc1ccc(-c2noc(N3CCC(C(=O)NCC4CCOC4)CC3)n2)cc1 (centres unmarked) [Compound 255, 1-(3-(4-methoxyphenyl)-1,2,4-oxadiazol-5-yl)-N-((tetrahydrofuran-3-yl)methyl)piperidine-4-carboxamide]",+ (+ >3 and <5)
3,"COc1ccc(-c2noc(N3CCC(C(=O)N[C@H]4C[C@@H](OC)C4)CC3)n2)cc1 [Compound 256, N-((1s,3s)-3-methoxycyclobutyl)-1-(3-(4-methoxyphenyl)-1,2,4-oxadiazol-5-yl)piperidine-4-carboxamide]",+ (+ >3 and <5)
4,"COc1ccc(-c2noc(N3CCC(C(=O)NCc4ccccc4N4CCCC4)CC3)n2)cc1 [Compound 257, 1-(3-(4-methoxyphenyl)-1,2,4-oxadiazol-5-yl)-N-(2-(pyrrolidin-1-yl)benzyl)piperidine-4-carboxamide]",+ (+ >3 and <5)
5,"COc1ccc(-c2noc(N3CCC(C(=O)NC4(C(O)c5ccccc5)CC4)CC3)n2)cc1 (centres unmarked) [Compound 258, N-(1-(hydroxy(phenyl)methyl)cyclopropyl)-1-(3-(4-methoxyphenyl)-1,2,4-oxadiazol-5-yl)piperidine-4-carboxamide]",+ (+ >3 and <5)
6,"COc1ccc(-c2noc(N3CCC(C(=O)N[C@H]4c5ccccc5C[C@H]4O)CC3)n2)cc1 [Compound 259, N-((1S,2R)-2-hydroxy-2,3-dihydro-1H-inden-1-yl)-1-(3-(4-methoxyphenyl)-1,2,4-oxadiazol-5-yl)piperidine-4-carboxamide]",+ (+ >3 and <5)
7,"COc1ccc(-c2noc(N3CCC(C(=O)NCC(C)(O)c4ccccc4)CC3)n2)cc1 (centres unmarked) [Compound 260, N-(2-hydroxy-2-phenylpropyl)-1-(3-(4-methoxyphenyl)-1,2,4-oxadiazol-5-yl)piperidine-4-carboxamide]",+ (+ >3 and <5)
8,"COc1ccc(-c2noc(N3CCC(C(=O)NC4=NCCS4)CC3)n2)cc1 [Compound 261, N-(4,5-dihydrothiazol-2-yl)-1-(3-(4-methoxyphenyl)-1,2,4-oxadiazol-5-yl)piperidine-4-carboxamide]",+ (+ >3 and <5)
9,"COc1ccc(-c2noc(N3CCC(C(=O)NC(CO)c4cccs4)CC3)n2)cc1 (centres unmarked) [Compound 262, N-(2-hydroxy-1-(thiophen-2-yl)ethyl)-1-(3-(4-methoxyphenyl)-1,2,4-oxadiazol-5-yl)piperidine-4-carboxamide]",+ (+ >3 and <5)
10,"COc1ccc(-c2noc(N3CCC(C(=O)NC(C)Cc4ccccn4)CC3)n2)cc1 (centres unmarked) [Compound 263, 1-(3-(4-methoxyphenyl)-1,2,4-oxadiazol-5-yl)-N-(1-(pyridin-2-yl)propan-2-yl)piperidine-4-carboxamide]",− (− ≤3)
11,"COc1ccc(-c2noc(N3CCC(C(=O)NC4(c5ccccc5)CC4)CC3)n2)cc1 [Compound 264, 1-(3-(4-methoxyphenyl)-1,2,4-oxadiazol-5-yl)-N-(1-phenylcyclopropyl)piperidine-4-carboxamide]",+ (+ >3 and <5)
12,"COc1ccc(-c2noc(N3CCC(C(=O)N[C@@H](CO)c4ccccc4)CC3)n2)cc1 [Compound 265, (R)-N-(2-hydroxy-1-phenylethyl)-1-(3-(4-methoxyphenyl)-1,2,4-oxadiazol-5-yl)piperidine-4-carboxamide]",+ (+ >3 and <5)
13,"COc1ccc(-c2noc(N3CCC(C(=O)N[C@@H](C)c4ccccc4F)CC3)n2)cc1 [Compound 266, (S)-N-(1-(2-fluorophenyl)ethyl)-1-(3-(4-methoxyphenyl)-1,2,4-oxadiazol-5-yl)piperidine-4-carboxamide]",+ (+ >3 and <5)
14,"Cc1ccc(CN2CC(CNC(=O)C3CCN(c4nc(-c5ccc(C#N)cc5)no4)CC3)CC2=O)cc1 (centres unmarked) [Compound 267, 1-(3-(4-cyanophenyl)-1,2,4-oxadiazol-5-yl)-N-((1-(4-methylbenzyl)-5-oxopyrrolidin-3-yl)methyl)piperidine-4-carboxamide]",++ (++ ≥5 and <6)
15,"Cc1ccc(CN2CC(CNC(=O)N3CCN(c4nc(-c5ccc(C#N)cc5)no4)CC3)CC2=O)cc1 (centres unmarked) [Compound 268, 4-(3-(4-cyanophenyl)-1,2,4-oxadiazol-5-yl)-N-((1-(4-methylbenzyl)-5-oxopyrrolidin-3-yl)methyl)piperazine-1-carboxamide]",++ (++ ≥5 and <6)
16,"COc1ccc(-c2noc(N3CCC(C(=O)NCCN4CCCC4(C)C)CC3)n2)cc1 [Compound 269, N-(2-(2,2-dimethylpyrrolidin-1-yl)ethyl)-1-(3-(4-methoxyphenyl)-1,2,4-oxadiazol-5-yl)piperidine-4-carboxamide]",+ (+ >3 and <5)

row,Compound,Myc Efficacy (−LogEC50)
1,"COc1ccc(-c2noc(N3CCC(C(=O)NCC4(O)CCCCC4)CC3)n2)cc1 [Compound 270, N-((1-hydroxycyclohexyl)methyl)-1-(3-(4-methoxyphenyl)-1,2,4-oxadiazol-5-yl)piperidine-4-carboxamide]",+ (+ >3 and <5)
2,"COc1ccc(-c2noc(N3CCC(C(=O)NC4CC5(C4)CN(C)C5)CC3)n2)cc1 [Compound 271, 1-(3-(4-methoxyphenyl)-1,2,4-oxadiazol-5-yl)-N-(2-methyl-2-azaspiro[3.3]heptan-6-yl)piperidine-4-carboxamide]",+ (+ >3 and <5)
3,"COc1ccc(-c2noc(N3CCC(C(=O)NC[C@H]4CC(C)(C)O4)CC3)n2)cc1 [Compound 272, (R)-N-((4,4-dimethyloxetan-2-yl)methyl)-1-(3-(4-methoxyphenyl)-1,2,4-oxadiazol-5-yl)piperidine-4-carboxamide]",+ (+ >3 and <5)
4,"COc1ccc(-c2noc(N3CCC(C(=O)NCC4(c5ccccc5)CCOCC4)CC3)n2)cc1 [Compound 273, 1-(3-(4-methoxyphenyl)-1,2,4-oxadiazol-5-yl)-N-((4-phenyltetrahydro-2H-pyran-4-yl)methyl)piperidine-4-carboxamide]",− (− ≤3)
5,"COc1ccc(-c2noc(N3CCC(C(=O)N[C@@H]4CC[C@H](O)C4)CC3)n2)cc1 [Compound 274, N-((1R,3S)-3-hydroxycyclopentyl)-1-(3-(4-methoxyphenyl)-1,2,4-oxadiazol-5-yl)piperidine-4-carboxamide]",+ (+ >3 and <5)
6,"COc1ccc(-c2noc(N3CCC(C(=O)NC4CCC(F)(F)C4)CC3)n2)cc1 (centres unmarked) [Compound 275, N-(3,3-difluorocyclopentyl)-1-(3-(4-methoxyphenyl)-1,2,4-oxadiazol-5-yl)piperidine-4-carboxamide]",+ (+ >3 and <5)
7,"COc1ccc(-c2noc(N3CCC(C(=O)NC[C@H](C)OC)CC3)n2)cc1 [Compound 276, (S)-1-(3-(4-methoxyphenyl)-1,2,4-oxadiazol-5-yl)-N-(2-methoxypropyl)piperidine-4-carboxamide]",+ (+ >3 and <5)
8,"COc1ccc(-c2noc(N3CCC(C(=O)NC4(Cc5ccccc5)COC4)CC3)n2)cc1 [Compound 277, N-(3-benzyloxetan-3-yl)-1-(3-(4-methoxyphenyl)-1,2,4-oxadiazol-5-yl)piperidine-4-carboxamide]",+ (+ >3 and <5)
9,"COc1ccc(-c2noc(N3CCC(C(=O)NCC4CCc5ccccc5O4)CC3)n2)cc1 (centres unmarked) [Compound 278, N-(chroman-2-ylmethyl)-1-(3-(4-methoxyphenyl)-1,2,4-oxadiazol-5-yl)piperidine-4-carboxamide]",+ (+ >3 and <5)
10,"CC[C@H](C)NC(=O)C1CCN(c2nc(-c3ccc(OC)cc3)no2)CC1 [Compound 279, (S)-N-(sec-butyl)-1-(3-(4-methoxyphenyl)-1,2,4-oxadiazol-5-yl)piperidine-4-carboxamide]",+ (+ >3 and <5)
11,"COc1ccc(-c2noc(N3CCC(C(=O)NC(c4ccccn4)C4CC4)CC3)n2)cc1 (centres unmarked) [Compound 280, N-(cyclopropyl(pyridin-2-yl)methyl)-1-(3-(4-methoxyphenyl)-1,2,4-oxadiazol-5-yl)piperidine-4-carboxamide]",+ (+ >3 and <5)
12,"COc1ccc(-c2noc(N3CCC(C(=O)NCc4ccc5c(c4)CCO5)CC3)n2)cc1 [Compound 281, N-((2,3-dihydrobenzofuran-5-yl)methyl)-1-(3-(4-methoxyphenyl)-1,2,4-oxadiazol-5-yl)piperidine-4-carboxamide]",+ (+ >3 and <5)
13,"COc1ccc(-c2noc(N3CCC(C(=O)NCCOc4ccccc4)CC3)n2)cc1 [Compound 282, 1-(3-(4-methoxyphenyl)-1,2,4-oxadiazol-5-yl)-N-(2-phenoxyethyl)piperidine-4-carboxamide]",+ (+ >3 and <5)
14,"COc1ccc(-c2noc(N3CCC(C(=O)NC4COc5ccccc54)CC3)n2)cc1 (centres unmarked) [Compound 283, N-(2,3-dihydrobenzofuran-3-yl)-1-(3-(4-methoxyphenyl)-1,2,4-oxadiazol-5-yl)piperidine-4-carboxamide]",+ (+ >3 and <5)
15,"COc1ccc(-c2noc(N3CCC(C(=O)NCc4ccccc4OC(F)F)CC3)n2)cc1 [Compound 284, N-(2-(difluoromethoxy)benzyl)-1-(3-(4-methoxyphenyl)-1,2,4-oxadiazol-5-yl)piperidine-4-carboxamide]",+ (+ >3 and <5)
16,"COc1ccc(-c2noc(N3CCC(C(=O)NCc4cc5ccccc5[nH]4)CC3)n2)cc1 [Compound 285, N-((1H-indol-2-yl)methyl)-1-(3-(4-methoxyphenyl)-1,2,4-oxadiazol-5-yl)piperidine-4-carboxamide]",++ (++ ≥5 and <6)
